Experiments:
[1] = biological target: T1, Adrenergic receptor alpha-1 (Rattus norvegicus, UniProt P15823+P23944+P43140); test: Inhibition of [3H]prazosin binding to alpha-1 adrenergic receptor from rat cortical membranes; format: cell membranes, Membrane
T1 sequence (P15823 whole entry): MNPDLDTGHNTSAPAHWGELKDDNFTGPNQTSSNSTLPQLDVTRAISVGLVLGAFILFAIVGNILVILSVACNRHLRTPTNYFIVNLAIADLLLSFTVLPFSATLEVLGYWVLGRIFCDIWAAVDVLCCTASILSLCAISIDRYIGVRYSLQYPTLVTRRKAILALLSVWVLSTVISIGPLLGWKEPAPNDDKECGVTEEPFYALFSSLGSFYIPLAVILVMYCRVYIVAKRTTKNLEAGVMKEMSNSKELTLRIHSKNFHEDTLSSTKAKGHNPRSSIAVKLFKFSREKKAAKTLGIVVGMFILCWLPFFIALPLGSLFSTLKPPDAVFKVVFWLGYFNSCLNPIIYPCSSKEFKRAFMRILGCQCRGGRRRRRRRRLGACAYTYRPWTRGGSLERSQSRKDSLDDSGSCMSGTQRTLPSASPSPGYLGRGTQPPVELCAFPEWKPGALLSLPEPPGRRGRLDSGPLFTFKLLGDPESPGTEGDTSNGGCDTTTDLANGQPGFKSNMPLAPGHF
T1 sequence (P23944 whole entry): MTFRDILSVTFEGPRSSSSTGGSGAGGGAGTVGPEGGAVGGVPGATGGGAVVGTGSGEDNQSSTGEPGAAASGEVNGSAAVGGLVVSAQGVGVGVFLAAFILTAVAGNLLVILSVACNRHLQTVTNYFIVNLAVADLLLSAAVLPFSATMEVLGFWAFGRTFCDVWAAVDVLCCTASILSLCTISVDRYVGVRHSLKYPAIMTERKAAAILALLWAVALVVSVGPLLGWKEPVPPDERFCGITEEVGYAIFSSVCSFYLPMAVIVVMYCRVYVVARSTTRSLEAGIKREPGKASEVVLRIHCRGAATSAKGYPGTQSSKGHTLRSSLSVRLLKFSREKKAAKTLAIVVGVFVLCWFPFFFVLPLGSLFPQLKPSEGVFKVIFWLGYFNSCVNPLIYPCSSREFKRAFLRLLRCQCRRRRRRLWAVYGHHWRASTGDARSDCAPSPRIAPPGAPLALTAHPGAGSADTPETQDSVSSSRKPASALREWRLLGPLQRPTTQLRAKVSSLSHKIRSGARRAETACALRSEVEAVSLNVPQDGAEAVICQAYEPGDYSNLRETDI
T1 sequence (P43140 whole entry): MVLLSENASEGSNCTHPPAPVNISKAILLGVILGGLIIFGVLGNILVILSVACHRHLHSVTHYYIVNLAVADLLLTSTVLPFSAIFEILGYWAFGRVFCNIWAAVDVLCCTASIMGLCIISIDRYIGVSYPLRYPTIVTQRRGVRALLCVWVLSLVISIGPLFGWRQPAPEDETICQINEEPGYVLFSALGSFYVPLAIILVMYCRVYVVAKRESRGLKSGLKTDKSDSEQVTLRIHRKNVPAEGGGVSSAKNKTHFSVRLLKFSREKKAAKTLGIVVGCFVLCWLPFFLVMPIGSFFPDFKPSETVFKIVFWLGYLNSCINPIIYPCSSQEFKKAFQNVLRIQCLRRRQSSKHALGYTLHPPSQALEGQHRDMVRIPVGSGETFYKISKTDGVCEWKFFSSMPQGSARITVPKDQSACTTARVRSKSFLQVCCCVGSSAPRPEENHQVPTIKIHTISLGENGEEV

[2] = system: Rattus norvegicus; test: Inhibition of 5-HT induced pressor response in pithed rats, after intravenous administration of 0.02 mg/kg; format: functional
[3] = biological target: Sodium-dependent dopamine transporter (Rattus norvegicus, UniProt P23977); test: In vitro inhibition of [3H]dopamine uptake in rat brain synaptosomes; format: subcellular
Chain of Sodium-dependent dopamine transporter (P23977 whole entry): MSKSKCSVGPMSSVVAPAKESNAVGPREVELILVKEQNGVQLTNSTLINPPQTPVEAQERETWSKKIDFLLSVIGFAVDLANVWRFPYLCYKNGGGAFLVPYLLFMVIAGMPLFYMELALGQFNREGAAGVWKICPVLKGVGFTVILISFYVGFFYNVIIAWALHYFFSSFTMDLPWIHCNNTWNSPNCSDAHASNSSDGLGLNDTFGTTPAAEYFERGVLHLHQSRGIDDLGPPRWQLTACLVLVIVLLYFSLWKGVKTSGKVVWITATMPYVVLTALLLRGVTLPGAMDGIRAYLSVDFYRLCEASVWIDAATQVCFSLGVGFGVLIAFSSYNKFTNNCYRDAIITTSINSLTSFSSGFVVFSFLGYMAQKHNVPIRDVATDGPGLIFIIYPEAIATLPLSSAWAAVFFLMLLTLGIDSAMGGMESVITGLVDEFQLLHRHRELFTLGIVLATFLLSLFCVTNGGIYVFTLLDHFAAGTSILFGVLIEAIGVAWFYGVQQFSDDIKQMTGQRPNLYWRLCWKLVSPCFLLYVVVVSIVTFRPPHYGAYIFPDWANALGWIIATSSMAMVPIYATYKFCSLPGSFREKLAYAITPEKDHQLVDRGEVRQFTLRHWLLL

[4] = biological target: D(2) dopamine receptor (Rattus norvegicus, UniProt P61169); test: Inhibition of [3H]spiperone binding to Dopamine receptor D2 from rat striatal membranes; format: cell membranes, Membrane
Chain of D(2) dopamine receptor (P61169 whole entry): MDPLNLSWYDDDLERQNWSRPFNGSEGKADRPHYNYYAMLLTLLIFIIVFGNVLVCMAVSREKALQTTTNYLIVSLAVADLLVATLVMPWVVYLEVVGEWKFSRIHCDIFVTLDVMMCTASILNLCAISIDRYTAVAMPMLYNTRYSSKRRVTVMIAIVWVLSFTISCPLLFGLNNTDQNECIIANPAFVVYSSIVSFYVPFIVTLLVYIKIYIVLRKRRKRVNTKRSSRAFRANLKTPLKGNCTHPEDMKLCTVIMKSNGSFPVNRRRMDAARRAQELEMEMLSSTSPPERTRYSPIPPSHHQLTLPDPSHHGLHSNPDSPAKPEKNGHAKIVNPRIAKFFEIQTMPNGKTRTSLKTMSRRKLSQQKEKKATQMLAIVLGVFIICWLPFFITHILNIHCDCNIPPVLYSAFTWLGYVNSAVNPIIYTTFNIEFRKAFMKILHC

[5] = system: Rattus norvegicus; test: Percent reduction of blood pressure in spontaneously hypertensive rat after 10 min at intraperitoneal administration of 5 mg/kg; format: functional
[6] = biological target: Norepinephrine transporter (Rattus norvegicus, UniProt Q9WTR4); test: In vitro inhibition of [3H]norepinephrine uptake in rat brain synaptosomes; format: subcellular
Chain of Norepinephrine transporter (Q9WTR4 whole entry): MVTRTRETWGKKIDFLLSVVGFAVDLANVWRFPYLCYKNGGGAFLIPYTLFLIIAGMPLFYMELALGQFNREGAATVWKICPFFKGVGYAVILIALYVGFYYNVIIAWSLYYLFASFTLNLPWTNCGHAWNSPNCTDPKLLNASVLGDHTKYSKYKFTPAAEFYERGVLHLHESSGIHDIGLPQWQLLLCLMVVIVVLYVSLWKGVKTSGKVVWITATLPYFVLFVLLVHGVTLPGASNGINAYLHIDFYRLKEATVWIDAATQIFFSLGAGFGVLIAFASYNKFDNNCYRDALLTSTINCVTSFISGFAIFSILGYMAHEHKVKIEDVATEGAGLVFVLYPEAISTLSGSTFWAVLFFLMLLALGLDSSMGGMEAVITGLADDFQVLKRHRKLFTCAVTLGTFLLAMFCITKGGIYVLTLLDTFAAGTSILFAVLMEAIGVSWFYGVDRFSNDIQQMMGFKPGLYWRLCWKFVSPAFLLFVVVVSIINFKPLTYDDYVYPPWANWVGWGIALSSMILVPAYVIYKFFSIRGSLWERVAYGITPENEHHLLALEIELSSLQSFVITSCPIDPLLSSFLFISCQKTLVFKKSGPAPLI

[7] = biological target: Serotonin 2 (5-HT2) receptor (Rattus norvegicus, UniProt P30994+P08909+P14842); test: Inhibition of [3H]spiperone binding to 5-hydroxytryptamine 2 receptor from rat cortical membranes; format: cell membranes, Membrane
[8] = biological target: Sodium-dependent serotonin transporter (Rattus norvegicus, UniProt P31652); test: In vitro inhibition of [3H]5-HT transporter uptake in rat brain synaptosomes; format: subcellular
Chain of Sodium-dependent serotonin transporter (P31652 whole entry): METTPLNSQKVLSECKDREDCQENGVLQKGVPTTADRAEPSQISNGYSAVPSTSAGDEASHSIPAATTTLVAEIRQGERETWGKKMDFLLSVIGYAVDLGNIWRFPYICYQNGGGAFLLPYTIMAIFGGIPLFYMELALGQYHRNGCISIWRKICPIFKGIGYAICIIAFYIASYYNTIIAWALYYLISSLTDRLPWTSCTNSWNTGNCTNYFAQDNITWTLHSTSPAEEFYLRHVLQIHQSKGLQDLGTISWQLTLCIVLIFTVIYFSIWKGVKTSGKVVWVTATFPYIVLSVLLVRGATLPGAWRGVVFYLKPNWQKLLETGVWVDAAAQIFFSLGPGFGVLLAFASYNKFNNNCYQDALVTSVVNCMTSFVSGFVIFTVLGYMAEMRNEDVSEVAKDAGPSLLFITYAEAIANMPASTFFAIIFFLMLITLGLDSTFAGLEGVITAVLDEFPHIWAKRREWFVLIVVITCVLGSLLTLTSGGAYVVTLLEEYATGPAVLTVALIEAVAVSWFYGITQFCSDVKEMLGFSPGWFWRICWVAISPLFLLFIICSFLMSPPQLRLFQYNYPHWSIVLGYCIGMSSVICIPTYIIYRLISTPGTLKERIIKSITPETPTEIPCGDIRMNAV

[9] = organism: Rattus norvegicus; test: Inhibition of L-5-HTP (L-5-hydroxytryptophan) induced head twitches in rat; format: functional
[10] = system: Rattus norvegicus; test: Inhibition of phenylephrine induced pressor response in pithed rats (following i.v. administration of […]); format: functional; conditions: route intravenous
[11] = system: Rattus norvegicus; test: Percent reduction of diastolic arterial blood pressure(DAP) in spontaneously hypertensive rat after 10 min at intraperitoneal administration of 5 mg/kg; format: functional
[12] = system: Rattus norvegicus; test: Inhibition of 5-HT induced pressor response in pithed rats, after intravenous administration; format: functional
[13] = system: Rattus norvegicus; test: Percent reduction of systolic arterial blood pressure(SAP) in spontaneously hypertensive rat after 10 min at intraperitoneal administration of 5 mg/kg; format: functional
[14] = organism: Mus musculus; test: Inhibition of methyl phenidate induced stereotyped gnawing in mice; format: functional
[15] = organism: Rattus norvegicus; test: Ratio of phenylephrine ED50/ 5-HT ED50; format: functional
[16] = system: Rattus norvegicus; test: Inhibition of 5-HT induced pressor response in pithed rats, after intravenous administration, activity is expressed as ED50; format: functional
[17] = Rattus norvegicus, read-out: ED50

Compound | IC50 [1] | IC50 [3] | IC50 [4] | IC50 [6] | IC50 [7] | IC50 [8] | ED50 [9] | Change [2] | ED50 [12] | ED50 [14] | Change [10] | Reduction [11] | Ratio [15] | Reduction [13] | ED50 [16] | further results
O=C1NCCN1CCN1CCN([C@@H]2C[C@@H](c3ccc(F)cc3)c3ccccc32)CC1 (stereo in doubt; 27) [IRINDALONE] | 670 nM | 100 nM | 4600 nM | 44 nM | 520 nM | > 100000 nM | >196 µM/kg | – | – | – | – | – | – | – | – | Change ([2]; 0.02 mg/kg): -3%; Reduction ([5]; 5 mg/kg): -3%; Change ([10]; […]): 33%
O=C(O)/C=C\C(=O)O.O=C(O)/C=C\C(=O)O.O=C1NCCN1CCN1CCN([C@H]2C[C@H](c3ccc(F)cc3)c3ccc(F)cc32)CC1 | 900 nM | 67 nM | 4500 nM | 17 nM | 320 nM | 2200 nM | 20 µmol/kg | 2% | 0.93 µmol/kg | > 61 µmol/kg | 11% | – | – | – | – | Increase [11]: 4%; Increase [13]: 6%
OCCN1CCN([C@@H]2C[C@@H](c3ccc(F)cc3)c3ccc(C(F)(F)F)cc32)CC1 (racemic) [TEFLUDAZINE] | 17 nM | – | 16 nM | – | 8.4 nM | – | – | – | 0.035 µmol/kg | 0.071 µmol/kg | – | -24% | 69 | -18% | 2.4 µmol/kg | –
O=C1NCCN1CCN1CCN([C@@H]2C[C@@H](c3ccc(F)cc3)c3ccccc32)CC1 (stereo in doubt; (+)2) [IRINDALONE] | 26 nM | 25000 nM | – | 22000 nM | 3.4 nM | 14000 nM | 0.56 µM/kg | – | 0.0045 µmol/kg | > 72 µmol/kg | – | – | 171 | – | 0.77 µmol/kg | Change ([2]; 0.02 mg/kg): -85%; Reduction ([5]; 5 mg/kg): -48%; Change ([10]; […]): -42%
O.O=C1NCCN1CCN1CCN([C@H]2C[C@H](c3ccc(F)cc3)c3ccccc32)CC1 | 540 nM | 140 nM | 13000 nM | 69 nM | 570 nM | 9700 nM | – | -11% | 2.7 µmol/kg | > 97 µmol/kg | 53% | – | – | – | – | Reduction [5]: 3%; ED50 [9, 17]: > 97 µmol/kg
O=C1NCCN1CCN1CCN(C2CC(c3ccc(F)cc3)c3ccccc32)CC1 (stereo unspecified) | 33 nM | – | 930 nM | – | 4.2 nM | – | – | – | – | > 98 µmol/kg | – | -43% | 129 | -33% | 3.1 µmol/kg | –
CN1CCN(CCN2CCN([C@H]3C[C@H](c4ccc(F)cc4)c4ccc(F)cc43)CC2)C1=O | 1300 nM | – | 8500 nM | – | 410 nM | – | > 45 µmol/kg | -6% | – | > 91 µmol/kg | 72% | -1% | – | – | – | Increase [13]: 1%
Fc1ccc([C@@H]2C[C@@H](N3CCNCC3)c3ccccc32)cc1.O=C(O)/C=C\C(=O)O.O=C(O)/C=C\C(=O)O | 37 nM | 280 nM | 580 nM | 450 nM | 18 nM | 42 nM | 1.7 µmol/kg | -40% | 0.1 µmol/kg | > 76 µmol/kg | 10% | -31% | 83 | -25% | 8.3 µmol/kg | –
Cl.Cl.OC1=NCCN1CCCN1CCN(C2CC(c3ccc(F)cc3)c3ccc(F)cc32)CC1 (stereo unspecified) | 12 nM | – | 46 nM | – | 5.6 nM | – | 2 µmol/kg | – | – | 55 µmol/kg | – | -19% | 87 | -12% | 2.7 µmol/kg | –
O=C(O)/C=C\C(=O)O.O=C(O)/C=C\C(=O)O.O=C1NCCN1CCN1CCN([C@@H]2C[C@@H](c3ccc(F)cc3)c3ccc(F)cc32)CC1 | 10 nM | 5700 nM | 46 nM | 2500 nM | 4.3 nM | 720 nM | 0.096 µmol/kg | – | 0.01 µmol/kg | – | – | -31% | 140 | -24% | 1.4 µmol/kg | –
O=C1NCCN1CCN1CCN(C2CC(c3ccc(F)cc3)c3ccc(F)cc32)CC1 (stereo unspecified) | 24 nM | – | 200 nM | – | 6.5 nM | – | – | – | – | > 47 µmol/kg | – | -19% | 153 | -13% | 2.6 µmol/kg | –
CN1CCN([C@H]2C[C@H](c3ccc(F)cc3)c3ccc(F)cc32)CC1 | 85 nM | 81 nM | – | 28 nM | 43 nM | 610 nM | – | -43% | – | 42 µmol/kg | 5% | – | – | – | – | Reduction [5]: -5%; ED50 [9, 17]: 0.49 µmol/kg
O.O=c1[nH]c2ccccc2c(=O)n1CCN1CCN(C2CC(c3ccc(F)cc3)c3ccc(F)cc32)CC1 (stereo unspecified) | 5.3 nM | – | 19 nM | – | 2.9 nM | – | 2.3 µmol/kg | -52% | 0.032 µmol/kg | > 79 µmol/kg | -57% | -46% | 13 | -29% | 0.43 µmol/kg | –
Fc1ccc([C@H]2C[C@H](N3CCNCC3)c3ccccc32)cc1.O=C(O)/C=C\C(=O)O.O=C(O)/C=C\C(=O)O | 540 nM | 220 nM | 8500 nM | 140 nM | 180 nM | 400 nM | – | -3% | – | > 76 µmol/kg | 41% | – | – | – | – | Reduction [5]: -2%; ED50 [9, 17]: 13 µmol/kg
CN1CCN([C@@H]2C[C@@H](c3ccc(F)cc3)c3ccc(F)cc32)CC1 | 9.3 nM | 1700 nM | – | 12000 nM | 4.9 nM | 3900 nM | – | -79% | – | 2.5 µmol/kg | -48% | – | – | – | – | Reduction [5]: -28%; ED50 [9, 17]: 0.13 µmol/kg

— ChEMBL document CHEMBL1124016, “Antihypertensive activity in a series of 1-piperazino-3-phenylindans with potent 5-HT2-antagonistic activity” (J Med Chem, 1988)
